# Measurements reported in ChEMBL document CHEMBL5154637, “Peptidomimetic α-Acyloxymethylketone Warheads with Six-Membered Lactam P1 Glutamine Mimic: SARS-CoV-2 3CL Protease Inhibition, Coronavirus Antiviral Activity, and in Vitro Biological Stability” (J Med Chem, 2022).
# Experiments:
# in vitro [1] = details: human, A549 cells
# [2] = Selectivity index, ratio of CC50 for cytotoxicity against African green monkey VeroE6 cells assessed as reduction in cell viability to EC50 for antiviral activity against SARS-CoV-2 3CL protease; format: toxicity, cell-based
# [3] = Cytotoxicity against human Huh-7 cells assessed as reduction in cell viability incubated for 24 hrs by Celltiter-glo luminescent cell viability assay; format: toxicity, cell-based
# [4] = Antiviral activity against Human coronavirus OC43 infected in human Huh-7 cells assessed as reduction in virus-induced cytopathic effect incubated for 7 days by Celltiter-Glo assay; format: functional, cell-based; details: Betacoronavirus 1, OC43, Huh-7, 168 h
# SARS-CoV-2 = experiment: microbe, parasite or virus in culture; details: Severe acute respiratory syndrome coronavirus 2, Vero C1008, 48 h
# Human coronavirus 229E = experiment: Antiviral activity against Human coronavirus 229E infected in human MRC5 cells assessed as reduction in virus-induced cytopathic effect incubated for 3 days by Celltiter-Glo assay; format: functional, organism-based; details: MRC5, 72 h
# in vitro [5] = details: chlorocebus sabaeus, Vero E6 cells
# [6] = Metabolic stability in human plasma measured at 2 hrs by LC-MS analysis; format: ADME, cell-free; details: read-out: Stability
# Cathepsin B [7] = biological target: T1, Cathepsin B (Homo sapiens, UniProt P07858); experiment: Inhibition of human cathepsin B at 1 uM incubated for 30 mins by fluorometric analysis
# [8] = Selectivity index, ratio of CC50 for cytotoxicity against human A549 cells assessed as reduction in cell viability to EC50 for antiviral activity against SARS-CoV-2 3CL protease; format: toxicity, cell-based; details: read-out: Ratio CC50/EC50
# Cathepsin S [9] = biological target: T2, Cathepsin S (Homo sapiens, UniProt P25774); experiment: Inhibition of human cathepsin S incubated for 30 mins by fluorometric analysis
# Target sequence in this assay (P25774 whole entry): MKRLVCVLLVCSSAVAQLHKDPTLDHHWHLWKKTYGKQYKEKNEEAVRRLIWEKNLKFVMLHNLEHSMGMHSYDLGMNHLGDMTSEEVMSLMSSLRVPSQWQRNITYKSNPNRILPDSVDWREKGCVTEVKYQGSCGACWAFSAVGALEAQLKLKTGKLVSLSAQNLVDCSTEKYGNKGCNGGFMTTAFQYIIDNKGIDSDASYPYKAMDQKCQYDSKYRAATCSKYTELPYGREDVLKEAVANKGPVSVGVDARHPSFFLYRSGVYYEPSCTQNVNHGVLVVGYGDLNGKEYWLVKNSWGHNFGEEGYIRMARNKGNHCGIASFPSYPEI
# [10] = Cytotoxicity against human MRC5 cells assessed as reduction in cell viability incubated for 24 hrs by Celltiter-glo luminescent cell viability assay; format: toxicity, cell-based
# Cathepsin B [11] = biological target: T1, Cathepsin B; experiment: Inhibition of human cathepsin B incubated for 30 mins by fluorometric analysis
# Cathepsin S [12] = biological target: T2, Cathepsin S; experiment: Inhibition of human cathepsin S at 1 uM incubated for 30 mins by fluorometric analysis
# Target sequence in this assay (P25774 115-331 limits assumed): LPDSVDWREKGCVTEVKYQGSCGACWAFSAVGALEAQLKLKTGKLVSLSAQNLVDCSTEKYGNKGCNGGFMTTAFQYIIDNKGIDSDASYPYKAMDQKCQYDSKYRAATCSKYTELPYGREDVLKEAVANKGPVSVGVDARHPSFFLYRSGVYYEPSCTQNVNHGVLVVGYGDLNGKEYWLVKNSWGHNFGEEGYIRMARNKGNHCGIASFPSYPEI
# [13] = Dissociation constant, pKa of the compound; format: physicochemical
# [14] = biological target: Replicase polyprotein 1ab (Severe acute respiratory syndrome coronavirus 2, UniProt P0DTD1); experiment: Inhibition of SARS-CoV-2 3CL protease incubated for 30 mins by FRET assay
# [15] = Microsomal stability in CD-1 mouse liver microsomes assessed as half life at 1 uM measured upto 60 mins in presence of NADPH by LC-MS/MS analysis; format: ADME, Microsome; details: for Stability: mouse, microsomes, 1 h, 1 µM; for half-life at 1 µM: CD-1, mouse, liver microsomes
# [16] = Metabolic stability in CD-1 mouse Hepatocytes assessed as half life at 3 uM measured upto 90 mins by LC-MS/MS analysis; format: ADME, cell-based, Hepatocyte; details: for half-life at 3 µM: CD-1, mouse
# [17] = Apparent permeability from basolateral to apical side in human Caco-2 cells at 2 uM with pH 7.4 incubated for 2 hrs by LC-MS analysis; format: ADME, cell-based; details: for permeability: caco-2, pH 7.4, 2 h, 2 µM; for Papp B→A at 2 h, 2 µM: Caco-2, pH 7.4
# [18] = Stability in CD-1 mouse plasma assessed as half life at 2 uM measured upto 120 mins by LC-MS/MS analysis; format: ADME, cell-free
# [19] = Metabolic stability in CD-1 mouse liver microsomes assessed as half life at 1 uM measured upto 60 mins in absence of NADPH by LC-MS/MS analysis; format: ADME, Microsome
# [20] = Lipophilicity, log D of the compound at phosphate buffer pH 7.4 by shake flask method based LC-MS/MS analysis; format: physicochemical
# [21] = Metabolic stability in human plasma assessed as half life measured upto 2 hrs by LC-MS analysis; format: ADME, cell-free
# [22] = Stability of compound in glutathione at pH 7.4 after 24 hrs by LC-MS analysis; format: physicochemical; details: read-out: Stability
# in vitro [23] = details: human, Huh-7 cells
# [24] = Efflux ratio of apparent permeability across basal to apical membrane over apical to basal membrane in human Caco-2 cells at 2 uM with pH 7.4 incubated for 2 hrs by LC-MS analysis; format: ADME, cell-based; details: caco-2, pH 7.4, 2 h
Compound,CC50 at 24 h (in vitro [1]),CC50 at 24 h [3],EC50 [4],EC50 (SARS-CoV-2),EC50 (Human coronavirus 229E),CC50 at 24 h (in vitro [5]),remaining at 2 h [6],inhibition (Cathepsin B [7]),CC50 at 24 h [10],inhibition (Cathepsin S [12]),pKa [13],IC50 [14],other results
COc1cccc2[nH]c(C(=O)N[C@@H](CC(C)C)C(=O)N[C@@H](C[C@@H]3CCCNC3=O)C(=O)COC(=O)c3c(C(F)(F)F)cccc3C(F)(F)F)cc12,> 200000 nM,94600 nM,47 nM,160 nM,29 nM,> 200000 nM,100%,91.3%,> 100000 nM,96.8%,1.9,–,selectivity ratio ([2]; read-out: Ratio CC50/EC50): > 1250; selectivity ratio [8]: > 1250; IC50 (Cathepsin S [9]): 116 nM; IC50 (Cathepsin B [11]): 464 nM
COc1cccc2[nH]c(C(=O)N[C@@H](CC(C)C)C(=O)N[C@@H](C[C@@H]3CCCNC3=O)C(=O)COC(=O)c3ccccn3)cc12,–,–,–,> 10000 nM,–,–,–,–,–,–,0.99,126 nM,–
COc1cccc2[nH]c(C(=O)N[C@@H](CC(C)C)C(=O)N[C@@H](C[C@@H]3CCCNC3=O)C(=O)COC(=O)c3c(C)nc(C)nc3C)cc12,> 200000 nM,–,–,–,–,> 200000 nM,–,–,–,–,2,–,–
COc1cccc2[nH]c(C(=O)N[C@@H](CC(C)C)C(=O)N[C@@H](C[C@@H]3CCCNC3=O)C(=O)COC(=O)c3c(C)nn(C)c3C)cc12,–,–,–,> 10000 nM,–,–,–,–,–,–,2.2,71.5 nM,–
COc1cccc2[nH]c(C(=O)N[C@@H](CC(C)C)C(=O)N[C@@H](C[C@@H]3CCCNC3=O)C(=O)COC(=O)c3c(Cl)cccc3Cl)cc12,> 200000 nM,> 100000 nM,35 nM,–,21 nM,> 200000 nM,–,–,> 100000 nM,–,1.26,–,"Stability [15]: Unstable; half-life at 3 µM [16]: 2.3 min; permeability [17]: Impermeable; half-life at 2 µM [18]: 170 min; half-life at 1 µM ([19]; CD-1, mouse, liver microsomes): < 180 min; logD [20]: > 5.07"
COc1cccc2[nH]c(C(=O)N[C@@H](CC(C)C)C(=O)N[C@@H](C[C@@H]3CCCNC3=O)C(=O)COC(=O)C(C)(C)C)cc12,–,–,–,> 10000 nM,–,–,100%,–,–,–,5.03,–,–
COc1cccc2[nH]c(C(=O)N[C@@H](CC(C)C)C(=O)N[C@@H](C[C@@H]3CCCNC3=O)C(=O)COC(=O)C(C)(C)C(F)(F)F)cc12,> 200000 nM,94600 nM,195 nM,> 5000 nM,112 nM,> 200000 nM,25%,–,> 100000 nM,–,3.2,–,"Stability [15]: Unstable; Stability ([16]; mouse, 1.5 h, 3 µM): Unstable; permeability [17]: Impermeable; half-life [21]: 67 min; half-life at 2 µM [18]: 11.6 min; Stability ([19]; mouse, microsomes, 1 h, 1 µM): Unstable; logD [20]: 4.89"
COc1cccc2[nH]c(C(=O)N[C@@H](CC(C)C)C(=O)N[C@@H](C[C@@H]3CCCNC3=O)C(=O)COC(=O)c3c(C)cc(C)nc3C)cc12,> 200000 nM,> 100000 nM,54 nM,–,48 nM,> 200000 nM,100%,86.7%,> 100000 nM,98.1%,1.7,19 nM,"half-life at 1 µM [15]: 1.1 min; half-life at 3 µM [16]: 2.7 min; Papp B→A at 2 h, 2 µM [17]: 21.8 ×10⁻⁶ cm/s; half-life at 2 µM [18]: > 289 min; IC50 (Cathepsin S [9]): 51.5 nM; IC50 (Cathepsin B [11]): 201 nM; remaining at 24 h [22]: > 80%; logD [20]: 4.41"
COc1cccc2[nH]c(C(=O)N[C@@H](CC(C)C)C(=O)N[C@@H](C[C@@H]3CCCNC3=O)C(=O)COC(=O)c3cccnc3)cc12,–,–,–,> 10000 nM,–,–,2%,–,–,–,2,–,half-life [21]: < 15 min
O=C[C@H](C[C@@H]1CCNC1=O)NC(=O)[C@H](CC1CCCCC1)NC(=O)OCc1cccc(Cl)c1,–,–,–,–,–,–,–,72.5%,–,99.3%,–,–,–
CC(=O)OCC(=O)[C@H](C[C@@H]1CCNC1=O)NC(=O)[C@H](CC(C)C)NC(=O)OCc1cccc(Cl)c1,> 200000 nM,–,–,21500 nM,–,> 200000 nM,–,–,–,–,–,1500 nM,–
COc1cccc2[nH]c(C(=O)N[C@@H](CC(C)C)C(=O)N[C@@H](C[C@@H]3CCCNC3=O)C(=O)COC(=O)C(C)(C)C#N)cc12,–,–,–,> 10000 nM,–,–,0%,–,–,–,2.4,–,half-life [21]: < 15 min
CCC(CC)COC(=O)[C@H](C)N[P@](=O)(OC[C@H]1O[C@@](C#N)(c2ccc3c(N)ncnn23)[C@H](O)[C@@H]1O)Oc1ccccc1,–,10400 nM,20 nM,–,35 nM,–,–,–,> 100000 nM,–,–,–,selectivity ratio (in vitro [23]): 518
COc1cccc2[nH]c(C(=O)N[C@@H](CC(C)C)C(=O)N[C@@H](C[C@@H]3CCCNC3=O)C(=O)COC(=O)C3(C)OCCCO3)cc12,–,–,–,> 10000 nM,–,–,–,–,–,–,2.7,12.5 nM,–
COc1cccc2[nH]c(C(=O)N[C@@H](CC(C)C)C(=O)N[C@@H](C[C@@H]3CCCNC3=O)C(=O)COC(=O)c3ccncc3)cc12,–,–,–,> 10000 nM,–,–,–,–,–,–,1.77,32.9 nM,–
COc1cccc2[nH]c(C(=O)N[C@@H](CC(C)C)C(=O)N[C@@H](C[C@@H]3CCCNC3=O)C(=O)COC(=O)c3ccccc3)cc12,–,–,–,> 10000 nM,–,–,67%,16.2%,–,41%,4.2,–,half-life [21]: 209 min
COc1cccc2[nH]c(C(=O)N[C@@H](CC(C)C)C(=O)N[C@@H](C[C@@H]3CCCNC3=O)C(=O)CO)cc12,> 200000 nM,–,–,10100 nM,–,> 200000 nM,–,26.5%,–,60.8%,–,19.5 nM,–
COc1cccc2[nH]c(C(=O)N[C@@H](CC(C)C)C(=O)N[C@@H](C[C@@H]3CCNC3=O)C(=O)COC(=O)c3c(C(F)(F)F)cc(C)nc3C)cc12,> 201000 nM,44900 nM,33 nM,–,13 nM,> 200000 nM,–,–,> 100000 nM,–,–,–,"half-life at 1 µM [15]: 1.1 min; half-life at 3 µM [16]: 1.9 min; Papp B→A at 2 h, 2 µM [17]: 24.3 ×10⁻⁶ cm/s; half-life at 2 µM [18]: > 289 min; logD [20]: 4.57"
COc1cccc2[nH]c(C(=O)N[C@@H](CC(C)C)C(=O)N[C@@H](C[C@@H]3CCCNC3=O)C(=O)COC(=O)c3c(C(F)(F)F)cc(C)nc3C)cc12,> 200000 nM,67600 nM,45 nM,470 nM,30 nM,> 200000 nM,99%,95%,> 100000 nM,98.4%,1.7,–,"selectivity ratio ([2]; read-out: Ratio): > 426; half-life at 1 µM [15]: 1 min; half-life at 3 µM [16]: 1.9 min; Papp B→A at 2 h, 2 µM [17]: 28.9 ×10⁻⁶ cm/s; selectivity ratio [8]: > 426; half-life at 2 µM [18]: > 289 min; Ratio [24]: 1146; remaining at 24 h [22]: > 80%; logD [20]: 4.11"
COc1cccc2[nH]c(C(=O)N[C@@H](CC(C)C)C(=O)N[C@@H](C[C@@H]3CCCNC3=O)C(=O)COC(=O)C3(C(F)(F)F)CCCCC3)cc12,> 200000 nM,> 100000 nM,395 nM,600 nM,196 nM,> 200000 nM,97%,38.6%,> 100000 nM,84.2%,3.4,–,selectivity ratio ([2]; read-out: Ratio CC50/EC50): > 333; selectivity ratio [8]: > 333; IC50 (Cathepsin S [9]): 444 nM; IC50 (Cathepsin B [11]): 2850 nM
